Test results from US4357331A, “7αMethoxycephalosporin derivatives” (Meiji Seika Kaisha, Ltd., priority 1978, dated 1982).
Values after ≈ are worked out from the molar mass of the structure shown. Like-named read-outs stand apart in the source and are kept apart here.

Columns and labels:
[1] = tested on: Escherichia coli No. 29; assay: in vivo antibacterial activity (ED50) in mice challenged intraperitoneally with E. coli No. 29; design: species or system Escherichia coli No. 29; Male ddY mice; settings: male ddY mice, fatality over a week, Probit method
[2] = tested on: Staphylococcus aureus 209p; assay: MIC, minimum inhibitory concentration (nutrient agar, 37° C., 20 hours); assay type: cell-based
[3] = tested on: Bacillus anthracis No. 119; assay: microbe, parasite or virus in culture; assay type: cell-based; settings: NO.119, 20 h, read-out: MIC (minimum inhibitory concentration)
[4] = tested on: Escherichia coli 255; assay: MIC, minimum inhibitory concentration (nutrient agar, 37° C., 20 hours); assay type: cell-based
[5] = tested on: Citrobacter freundii; assay: as above; assay type: cell-based
[6] = tested on: Klebsiella pneumoniae; assay: as above; assay type: cell-based; settings: read-out: MIC (minimum inhibitory concentration)
[7] = tested on: Proteus morganii; assay: as above; assay type: cell-based; settings: Morganella morganii
[8] = tested on: Serratia marcescens No. 1; assay: as above; assay type: cell-based; settings: read-out: MIC (minimum inhibitory concentration)
[9] = tested on: Pseudomonas aeruginosa IFO 3080; assay: as above; assay type: cell-based; settings: IFO3080
[10] = Serratia marcescens No. 1, 37° C., 20 hours

SMILES: CCOC(=O)C(N)CSCC(=O)NC1(OC)C(=O)N2C(C(=O)OCOC(=O)C(C)(C)C)=C(CSc3nnnn3C)CSC21 (stereo not drawn) [Example 17, pivaloyloxymethyl 7β-(2D-2-amino-2-ethoxycarbonyl)ethylthioacetamido-7α-methoxy-3-(1-methyl-1H-tetrazol-5-yl)thiomethyl-3-cephem-4-carboxylate]
- ED50 with Escherichia coli No. 29 ([1]; oral): 0.86 mg/mouse
- ED50 with Escherichia coli No. 29 ([1]; subcutaneous): 0.046 mg/mouse

SMILES: COC1(NC(=O)CSCCN)C(=O)N2C(C(=O)O)=C(CSc3nnnn3C)CSC21 (stereo not drawn) [Ex. 1, 7β-aminoethylthioacetamido-7α-methoxy-3-(1-methyl-1H-tetrazol-5-yl)thiomethyl-3-cephem-4-carboxylic acid]
- MIC [2]: 1.56 µg/mL (≈ 3.28 µM)
- MIC [3]: 0.39 µg/mL (≈ 0.82 µM)
- MIC [4]: 6.25 µg/mL (≈ 13.1 µM)
- MIC [5]: 1.56 µg/mL (≈ 3.28 µM)
- MIC ([6]; 37° C., 20 hours): 3.13 µg/mL (≈ 6.58 µM)
- MIC [7]: 6.25 µg/mL (≈ 13.1 µM)
- MIC [8, 10]: 3.13 µg/mL (≈ 6.58 µM)
- MIC [9]: 25 µg/mL (≈ 52.6 µM)

SMILES: CO[C@@]1(NC(=O)Cc2cccs2)C(=O)N2C(C(=O)O)=C(COC(N)=O)CS[C@@H]21 [Cefoxitin, cefoxitin, reference compound]
- MIC [2]: 1.56 µg/mL (≈ 3.65 µM)
- MIC [3]: 3.13 µg/mL (≈ 7.32 µM)
- MIC [4]: 50 µg/mL (≈ 117 µM)
- MIC [5]: 50 µg/mL (≈ 117 µM)
- MIC ([6]; 20 h): 3.13 µg/mL (≈ 7.32 µM)
- MIC [7]: 6.25 µg/mL (≈ 14.6 µM)
- MIC ([8]; Serratia marcescens, NO.1, 20 h): 3.13 µg/mL (≈ 7.32 µM)
- MIC [9]: 100 µg/mL (≈ 234 µM)
- ED50 with Escherichia coli No. 29 ([1]; oral): > 5.0 mg/mouse
- ED50 with Escherichia coli No. 29 ([1]; subcutaneous): 0.43 mg/mouse

SMILES: COC1(NC(=O)CSCCNC(N)=O)C(=O)N2C(C(=O)O)=C(CSc3nnnn3C)CSC21 (stereo not drawn) [Ex. 2, 7β-ureidoethylthioacetamido-7α-methoxy-3-(1-methyl-1H-tetrazol-5-yl)thiomethyl-3-cephem-4-carboxylic acid]
- MIC [2]: 3.13 µg/mL (≈ 6.04 µM)
- MIC [3]: 0.78 µg/mL (≈ 1.5 µM)
- MIC [4]: 12.5 µg/mL (≈ 24.1 µM)
- MIC [5]: 25 µg/mL (≈ 48.2 µM)
- MIC ([6]; 37° C., 20 hours): 1.56 µg/mL (≈ 3.01 µM)
- MIC [7]: 3.13 µg/mL (≈ 6.04 µM)
- MIC [8, 10]: 3.13 µg/mL (≈ 6.04 µM)
- MIC [9]: 25 µg/mL (≈ 48.2 µM)

SMILES: COC(=O)C(N)CSCC(=O)NC1(OC)C(=O)N2C(C(=O)OC(C)OC(C)=O)=C(CSc3nnnn3C)CSC21 (stereo not drawn) [Example 18, 1-acetoxyethyl 7β-(2D-2-amino-2-methoxycarbonyl)ethylthioacetamido-7α-methoxy-3-(1-methyl-1H-tetrazol-5-yl)thiomethyl-3-cephem-4-carboxylate]
- ED50 with Escherichia coli No. 29 ([1]; oral): 0.36 mg/mouse
- ED50 with Escherichia coli No. 29 ([1]; subcutaneous): 0.24 mg/mouse

SMILES: COC1(NC(=O)CSCCC(N)C(=O)O)C(=O)N2C(C(=O)O)=C(CSc3nnnn3C)CSC21 (stereo not drawn) [Ex. 11, sodium 7β-(3D-3-amino-3-carboxy)propylthioacetamido-7α-methoxy-3-(1-methyl-1H-tetrazol-5-yl)thiomethyl-3-cephem-4-carboxylate]
- MIC [2]: 3.13 µg/mL
- MIC [3]: 0.2 µg/mL
- MIC [4]: 0.78 µg/mL
- MIC [5]: 25 µg/mL
- MIC ([6]; 37° C., 20 hours): 1.56 µg/mL
- MIC [7]: 3.13 µg/mL
- MIC [8, 10]: 0.78 µg/mL
- MIC [9]: 100 µg/mL

SMILES: COC1(NC(=O)CSCC(N)C(=O)O)C(=O)N2C(C(=O)OC(C)OC(=O)C(C)(C)C)=C(CSc3nnnn3C)CSC21 (stereo not drawn) [Example 19, 1-pivaloyloxyethyl 7β-(2D-2-amino-2-carboxy)ethylthioacetamido-7α-methoxy-3-(1-methyl-1H-tetrazol-5-yl)thiomethyl-3-cephem-4-carboxylate]
- ED50 with Escherichia coli No. 29 ([1]; oral): 0.25 mg/mouse
- ED50 with Escherichia coli No. 29 ([1]; subcutaneous): 0.17 mg/mouse

SMILES: COC1(NC(=O)CSCCC(N)C(=O)O)C(=O)N2C(C(=O)[O-])=C(C[n+]3ccc(C(N)=O)cc3)CSC21 (stereo not drawn) [Ex. 12, 7β-(3DL-3-amino-carboxy)propylthioacetamido-7α-methoxy-3-(p-carbamoylpyridinium)methyl-3-cephem-4-carboxylic acid]
- MIC [2]: 6.25 µg/mL (≈ 11.6 µM)
- MIC [3]: 1.56 µg/mL (≈ 2.89 µM)
- MIC [4]: 3.13 µg/mL (≈ 5.8 µM)
- MIC [5]: 25 µg/mL (≈ 46.3 µM)
- MIC ([6]; 37° C., 20 hours): 6.25 µg/mL (≈ 11.6 µM)
- MIC [7]: 12.5 µg/mL (≈ 23.2 µM)
- MIC [8, 10]: 12.5 µg/mL (≈ 23.2 µM)
- MIC [9]: 6.25 µg/mL (≈ 11.6 µM)

SMILES: CC1=C(C(=O)O)N2C(=O)[C@@H](NC(=O)[C@H](N)c3ccccc3)[C@H]2SC1 [Cephalexin, cephalexin, reference compound]
- ED50 with Escherichia coli No. 29 ([1]; oral): 1.60 mg/mouse
